Measured values taken from US20250066727A1, “COMPOSITIONS AND METHODS FOR CULTURING STEM CELLS” (Beijing TheraXyte BioScience Co. Ltd., priority 2021, published 2025).

Experiments:
Type in all cases: cell-based
adult KSCs [1] = assay: Growth supplement function assay (EdU / p63); conditions: 24 hours; for concentration that could promote adult KSCs proliferation (EdU/p63 ratio): added to KSFX-free basal medium
Protocol: For the EdU (5-ethynyl-2′-deoxyuridine) assay, 5×10^3 cells were plated to a well of the 96-well cell culture plate and cultured for overnight. On the second day, the cells were treated with 10 μM EdU for 3 hours at 37° C. The cells were washed with PBS and then fixed with 4% formaldehyde for 30 min at RT. The cells were washed with PBS and then permeabilized with 0.1% Triton for 20 min at RT. The cells were washed with PBS and then labeled with freshly prepared EdU labeling buffer containing 5 μM of Sulfo-Cyanine 3 azide, 4 mM of Copper(II) sulfate pentahydrate, 2 mg/mL of Sodium L-ascorbate in PBS for 30 min at RT. The cells were washed with PBS and labeled with Hoechst if needed. Finally, the plate was scanned and analyzed by Celllnsight CX5 HCA reader.
Cells were washed with PBS once and then fixed with 4% formaldehyde for 30 min at room temperature (RT). The cells were washed with PBS and then permeabilized with 0.1% Triton for 20 min at RT The cells were washed with PBS and then blocked with 3% BSA for 1 hr at RT. Then the cells were incubated with primary antibodies such as anti-KRT14, or anti-p63 overnight at 4° C. The cells were washed with PBS and labeled with the secondary antibody such as Goat anti-Mouse Alexa Fluor 488, Goat anti-Rabbit Alexa Fluor 647, and Hoechst if needed. Finally, the plate was scanned and analyzed by CellInsight CX5 HCA reader. Microscopy was captured with Confocal Microscope A1 HD25.
Different concentrations of each factor were added to the KSFX-free basal medium and the adult KSCs were cultured for 24 hours. Then cells were labeled with EdU as well as the KSCs marker p63. The ratio of EdU/p63 indicates the proliferation rate of KSCs, and the p63 count indicates the total cell number which is a result of cell proliferation and cell death.

adult KSCs [2] = assay: Calcium concentration function assay in KSFX-free basal medium
Protocol: (§1) For long-term proliferation assay, cells were continuously passaged on the 6-well cell culture plate. For each passage, 2×10^5 viable cells were plated and then cultured for about 5 days, when the cells were ˜90% confluent, cells were passaged and the cell number as well as the viability with the cell counter were recorded. Microscopy was performed with Eclipse TS100 (Nikon).
The effect of calcium concentrations in the KSFX-free basal medium on the proliferation and differentiation of adult KSCs were tested. Cells were cultured in different concentrations of calcium, including 0 mM, 0.05 mM, 0.15 mM, 0.5 mM, and 1.5 mM for 10 passages. As shown in FIG. 8 and FIG. 9A, withdraw of calcium led to the growth stop of adult KSCs after 3 passages.

adult KSCs [3] = assay: Long-term proliferation of adult KSCs on coating matrix in KSFX-free basal medium; conditions: 5 passages
Protocol: as §1
Further, the proliferation functions of FN, COLI, and LN was also tested in the KSFX-free basal medium. Adult KSCs were continuously passaged and the population doubling (PD) curves were calculated.

adult KSCs [4] = assay: Coating matrix function assay: attachment and spreading of adult KSCs in KSFX-free basal medium
Protocol: Coating Matrix Preparation—Coating matrix such as Collagen I, Poly-D-Lysine (PDL), Matrigel, rh-Fibronectin, and rh-Laminin 521 were prepared according to the instructions of the manufacture (Table 1). Briefly, for one well of the 6-well cell culture plate, 1 mL of the working solution was added to the surface of the well and the plate was incubated at the recommended condition. Then the well was washed once with 1 mL of PBS and ready to be used.
The keratinocyte stem cells (KSCs) were isolated from donated foreskin or fetal skin tissue. Briefly, the skin tissue was cleaned up with 70% ethanol and washed several times with PBS containing antibiotics. The tissue in PBS was collected, trimmed away any fat and loose fascia, and cut into strips approximately 0.5 cm×1.5 cm. The tissue was submerged in dispase and treated overnight at 4° C. The epidermis was then separated from the dermis and washed with PBS several times. All the epidermis was collected into one tube containing the TrypLE and incubated for 30 minutes at 37° C. Enough PBS was added to neutralize the TrypLE and the solution was pipetted up and down to suspend the cells. The cell suspension was passed through a 70 μm cell strainer, and then the cells were pelleted by centrifugation at 300 g for 10 minutes. The cell pellet was resuspended in culture medium and the concentration of the viable cells/mL was determined. 2×10^4 viable epidermal cells/cm^2 was plated on culture flask treated with coating matrix, and then the flask was incubated in a 37° C., 95% air/5% CO2 saturated humidity chamber. The culture medium was changed every 48 hours. Once the cultures were ˜80% confluent, the cells were subcultured and/or cryopreserved using a freezing medium. For subculture, cells were washed once by PBS then treated with TrypLE for no more than 6 min at 37° C. PBS was added to neutralize the TrypLE, and then the tube was centrifuged at 300 g for 10 min. New flasks were seeded at 1-2×10^4 cells/cm^2.
The function of each coating matrix listed in Table 1 was tested for the attachment and spreading of adult KSCs. […]

[5] = 1.5 mM calcium, KSFX-free basal medium

Cc1cccc(-c2nn(C(=S)Nc3ccccc3)cc2-c2ccnc3ccccc23)n1 [A 83-01]
concentration that could promote adult KSCs proliferation (EdU/p63 ratio) (adult KSCs [1]): at least 0.5 μM

C[C@@H](N)[C@H]1CC[C@H](C(=O)Nc2ccncc2)CC1 [Y-27632]
concentration that could promote adult KSCs proliferation (EdU/p63 ratio) (adult KSCs [1]): at least 1 μM
change of the total cell number (p63 count) compared with the blank (adult KSCs [1]; at least 1 μM (such as 1-10 μM), KSFX-free basal medium): two-fold change

[Ca+2] [calcium]
passages after which adult KSCs stopped growing (adult KSCs [2]; 0 mM calcium (withdraw of calcium), KSFX-free basal medium): 3 passages
proliferation rate of adult KSCs (adult KSCs [2]; 0.05 mM calcium, later passages): started to grow slower later
proliferation of adult KSCs (adult KSCs [2]; 0.5 mM calcium, KSFX-free basal medium): could proliferate longer, with more cell-to-cell connections
differentiation of adult KSCs (adult KSCs [2]; [5]): most of cells had differentiated with the collapsed nucleus
passages after which adult KSCs stopped growing (adult KSCs [2]; [5]): 5 passages
calcium concentration that can better support the long-term expansion of adult KSCs (adult KSCs [2]; KSFX-free basal medium, 10 passages): 0.1 to 1.0 mM

COLI: Collagen I coating matrix, extracted from rat tail, 50 μg/mL
long-term expansion of adult KSCs in vitro (adult KSCs [3]): supported the long-term expansion of adult KSCs in vitro
proliferation of adult KSCs (population doubling) compared with blank (adult KSCs [3]; continuously passaged): could promote the proliferation of adult KSCs
attachment and spreading of adult KSCs (adult KSCs [4]; after 30 min of culturing, bright-field microscopy): attached to the plate and spread with a flatten morphology
attachment and spreading of adult KSCs (adult KSCs [4]; after 2 hours of culturing): fully spread
attachment/spreading function, comparison among the coating matrix tested (adult KSCs [4]; overall): performed better functions compared with MAT and PDL
